What follows are compounds tested on ET (Huh-lucubineo-ET) cell line harboring I389luc-ubi-neo/NS3-3′/ET HCV replicon (assay: Replicon assay (HCV replicon, luciferase readout)). Details: Hepatitis C virus.
Type: cell-based
Description: A cell line, ET (Huh-lucubineo-ET) is used for screening of compounds for inhibiting HCV RNA dependent RNA polymerase. The ET cell line is stably transfected with RNA transcripts harboring a I389luc-ubi-neo/NS3-3′/ET; replicon with firefly luciferase-ubiquitin-neomycin phosphotransferase fusion protein and EMCV-IRES driven NS3-5B polyprotein containing the cell culture adaptive mutations (E1202G; T1280I; K1846T) (Krieger at al, 2001 and unpublished). The ET cells are grown in DMEM (Dulbeco's Modified Eagle's Medium), supplemented with 10% fetal calf serum, 2 mM Glutamine, Penicillin (100 IU/mL)/Streptomycin (100 μg/mL), 1× nonessential amino acids, and 250 μg/mL G418 (“Geneticin”). They are all available through Life Technologies (Bethesda, Md.). The cells are plated at 0.5−1.0×10^4 cells/well in the 96 well plates and incubated for 24 hrs before adding test compound. The compounds are added to the cells to achieve a final concentration of 0.1 nM to […] and a final DMSO (dimethylsulfoxide) concentration of 0.5%. Luciferase activity is measured 48-72 hours later by adding a lysis buffer and the substrate (Catalog number Glo-lysis buffer E2661 and Bright-Glo luciferase system E2620 Promega, Madison, Wis.). Cells should not be too confluent during the assay. Percent inhibition of replication data is plotted relative to no compound control. Under the same condition, cytotoxicity of the compounds are determined using cell proliferation reagent, WST-1 (Roche, Germany). The compounds showing antiviral activities, but no significant cytotoxicities are chosen to determine EC50 and TC50. For these determinations, a 10 point, 2-fold serial dilution for each compound was used, which spans a concentration range of 1000 fold. EC50 and similarly TC50 values were calculated by fitting % inhibition at each concentration to the following equation:
% inhibition=100%/[(EC50/[I])^b+1]
where b is Hill's coefficient.
Compound `CCCOC1CCN(C(=O)c2nc3c(C(F)(F)F)cc(-c4cn[nH]c4)cn3c2Cl)CC1` [Compound 176, [3-Chloro-6-(1H-pyrazol-4-yl)-8-trifluoromethyl-imidazo[1,2-a]pyridin-2-yl]-(4-propoxy-piperidin-1-yl)-methanone] has an EC50 of 0.883 µM.
In the case of `CC(C)CC(NC(=O)c1cn2cc(-c3ccoc3)cc(C(F)(F)F)c2n1)C(=O)O` (centres unmarked) [Compound 270, 2-[(6-Furan-3-yl-8-trifluoromethyl-imidazo[1,2-a]pyridine-2-carbonyl)-amino]-4-methyl-pentanoic acid], the EC50 is reported as over 50 µM.
Work on `COC(=O)C(CO)NC(=O)c1cn2cc(-c3ccoc3)cc(C(F)(F)F)c2n1` (centres unmarked) [Compound 252, 2-[(6-Furan-3-yl-8-trifluoromethyl-imidazo[1,2-a]pyridine-2-carbonyl)-amino]-3-hydroxy-propionic acid methyl ester] yielded an EC50 of over 50 µM.
`O=C(c1ccccc1)C1CCN(C(=O)c2nc3c(C(F)(F)F)cc(-c4ccoc4)cn3c2Cl)CC1` [Compound 194, (4-Benzoyl-piperidin-1-yl)-(3-chloro-6-furan-3-yl-8-trifluoromethyl-imidazo[1,2-a]pyridin-2-yl)-methanone] showed an EC50 of 0.889 µM.
In the case of `N#CC1(c2ncccc2F)CCN(C(=O)c2nc3c(C(F)(F)F)cc(-c4ccoc4)cn3c2Cl)CC1` [Compound 220, 1′-(3-Chloro-6-furan-3-yl-8-trifluoromethyl-imidazo[1,2-a]pyridine-2-carbonyl)-3-fluoro-2′,3′,5′,6′-tetrahydro-1′H-[2,4′]bipyridinyl-4′-carbonitrile], the EC50 is reported as 0.777 µM.
`NC(=O)C1CCCN1C(=O)c1cn2cc(-c3ccoc3)cc(C(F)(F)F)c2n1` (centres unmarked) [Compound 280, 1-(6-Furan-3-yl-8-trifluoromethyl-imidazo[1,2-a]pyridine-2-carbonyl)-pyrrolidine-2-carboxylic acid amide] showed an EC50 of over 50 µM.
With `O=C(Cc1cn2cc(-c3ccoc3)cc(C(F)(F)F)c2n1)Nc1nccs1` [Compound 184, 2-(6-Furan-3-yl-8-trifluoromethyl-imidazo[1,2-a]pyridin-2-yl)-N-thiazol-2-yl-acetamide] the EC50 was over 50 µM.
`CN(C)C(=O)[C@H]1CCCN1C(=O)Cc1cn2cc(-c3ccoc3)cc(C(F)(F)F)c2n1` [Compound 314, 1-[2-(6-Furan-3-yl-8-trifluoromethyl-imidazo[1,2-a]pyridin-2-yl)-acetyl]-pyrrolidine-2-carboxylic acid dimethylamide] showed an EC50 of over 50 µM.
`COC(=O)C(NC(=O)c1cn2cc(-c3ccoc3)cc(C(F)(F)F)c2n1)C(C)C` (centres unmarked) [Compound 256, 2-[(6-Furan-3-yl-8-trifluoromethyl-imidazo[1,2-a]pyridine-2-carbonyl)-amino]-3-methyl-butyric acid methyl ester] showed an EC50 of over 50 µM.
With `O=C(c1nc2c(C(F)(F)F)cc(-c3cn[nH]c3)cn2c1Cl)N1CC=C(c2cncs2)C1` [Compound 105, [3-Chloro-6-(1H-pyrazol-4-yl)-8-trifluoromethyl-imidazo [1,2-a]pyridin-2-yl]-(3-thiazol-5-yl-2,5-dihydro-pyrrol-1-yl)-methanone] the EC50 was 0.13 µM.
`O=C(c1nc2c(C(F)(F)F)cc(-c3ccoc3)cn2c1Cl)N1CCC(S(=O)(=O)c2ccccc2)CC1` [Compound 268, (4-Benzenesulfonyl-piperidin-1-yl)-(3-chloro-6-furan-3-yl-8-trifluoromethyl-imidazo[1,2-a]pyridin-2-yl)-methanone] gave an EC50 of over 50 µM.
Work on `O=C(c1nc2c(C(F)(F)F)cc(-c3ccoc3)cn2c1Cl)N1CCC(n2ccnc2)CC1` [Compound 197, (3-Chloro-6-furan-3-yl-8-trifluoromethyl-imidazo[1,2-a]pyridin-2-yl)-(4-imidazol-1-yl-piperidin-1-yl)-methanone] yielded an EC50 of 3.5 µM.
`COC(=O)C(CC(C)C)NC(=O)Cc1cn2cc(-c3ccoc3)cc(C(F)(F)F)c2n1` (centres unmarked) [Compound 306, 2-[2-(6-Furan-3-yl-8-trifluoromethyl-imidazo[1,2-a]pyridin-2-yl)-acetylamino]-4-methyl-pentanoic acid methyl ester] showed an EC50 of over 50 µM.
For `O=C(c1nc2c(C(F)(F)F)cc(-c3ccoc3)cn2c1Cl)N1CC=C(c2ncc[nH]2)CC1` [Compound 111, (3-Chloro-6-furan-3-yl-8-trifluoromethyl-imidazo[1,2-a]pyridin-2-yl)-[4-(1H-imidazol-2-yl)-3,6-dihydro-2H-pyridin-1-yl]-methanone], the EC50 was over 50 µM.
`O=C(c1nc2c(C(F)(F)F)cc(-c3cn[nH]c3)cn2c1Cl)N1CC=C(c2cccnc2)C1` [Compound 134, [3-Chloro-6-(1H-pyrazol-4-yl)-8-trifluoromethyl-imidazo[1,2-a]pyridin-2-yl]-(3-pyridin-3-yl-2,5-dihydro-pyrrol-1-yl)-methanone] was tested, and the EC50 was 0.188 µM.
With `O=C(c1nc2c(C(F)(F)F)cc(-c3ccoc3)cn2c1Cl)N1CC=C(/C=C/C2CC2)CC1` [Compound 212, (3-Chloro-6-furan-3-yl-8-trifluoromethyl-imidazo[1,2-a]pyridin-2-yl)-[4-(2-cyclopropyl-vinyl)-3,6-dihydro-2H-pyridin-1-yl]-methanone] the EC50 was 0.338 µM.
For `O=C(Cc1cn2cc(-c3ccoc3)cc(C(F)(F)F)c2n1)NCCc1ccccc1` [Compound 192, 2-(6-Furan-3-yl-8-trifluoromethyl-imidazo[1,2-a]pyridin-2-yl)-N-phenethyl-acetamide], the EC50 was over 50 µM.
In the case of `CC(=O)N1CCCN(C(=O)c2nc3c(C(F)(F)F)cc(-c4ccoc4)cn3c2Cl)CC1` [Compound 325, 1-[4-(3-Chloro-6-furan-3-yl-8-trifluoromethyl-imidazo[1,2-a]pyridine-2-carbonyl)-[1,4]diazepan-1-yl]-ethanone], the EC50 is reported as over 50 µM.
`COC(=O)C(Cc1cnc[nH]1)NC(=O)c1cn2cc(-c3ccoc3)cc(C(F)(F)F)c2n1` (centres unmarked) [Compound 155, 2-[(6-Furan-3-yl-8-trifluoromethyl-imidazo[1,2-a]pyridine-2-carbonyl)-amino]-3-(3H-imidazol-4-yl)-propionic acid methyl ester] showed an EC50 of 44.5 µM.
`O=C(c1nc2c(C(F)(F)F)cc(-c3cccs3)cn2c1Cl)N1CC=C(c2ncccc2F)CC1` [Compound 123, (3-Chloro-6-thiophen-2-yl-8-trifluoromethyl-imidazo[1,2-a]pyridin-2-yl)-(3-fluoro-3′,6′-dihydro-2′H-[2,4′]bipyridinyl-1′-yl)-methanone] showed an EC50 of 0.147 µM.
Compound `COC(=O)C(CCSC)NC(=O)c1cn2cc(-c3ccoc3)cc(C(F)(F)F)c2n1` (centres unmarked) [Compound 251, 2-[(6-Furan-3-yl-8-trifluoromethyl-imidazo[1,2-a]pyridine-2-carbonyl)-amino]-4-methylsulfanyl-butyric acid methyl ester] has an EC50 of over 50 µM.
In the case of `COC(=O)C(Cc1cnc[nH]1)NC(=O)Cc1cn2cc(-c3ccoc3)cc(C(F)(F)F)c2n1` (centres unmarked) [Compound 293, 2-[2-(6-Furan-3-yl-8-trifluoromethyl-imidazo[1,2-a]pyridin-2-yl)-acetylamino]-3-(3H-imidazol-4-yl)-propionic acid methyl ester], the EC50 is reported as over 50 µM.
Compound `FC(F)(F)c1cc(-c2ccoc2)cn2cc(Cn3cnc(-c4ccccc4)c3)nc12` [Compound 228, 6-Furan-3-yl-2-(4-phenyl-imidazol-1-ylmethyl)-8-trifluoromethyl-imidazo[1,2-a]pyridine] has an EC50 of over 50 µM.
Work on `NCCc1cn2cc(-c3ccoc3)cc(C(F)(F)F)c2n1` [Compound 258, 2-(6-Furan-3-yl-8-trifluoromethyl-imidazo[1,2-a]pyridin-2-yl)-ethylamine] yielded an EC50 of over 50 µM.
With `O=C(c1cn2cc(-c3coc(Br)c3)cc(C(F)(F)F)c2n1)N1CC(NS(=O)(=O)C2CC2)C1` [Compound 147, Cyclopropanesulfonic acid {1-[6-(5-bromo-furan-3-yl)-8-trifluoromethyl-imidazo[1,2-a]pyridine-2-carbonyl]-azetidin-3-yl}-amide] the EC50 was 3.99 µM.
`O=C(NCc1cn2cc(-c3ccoc3)cc(C(F)(F)F)c2n1)C1CC1` [Compound 226, Cyclopropanecarboxylic acid (6-furan-3-yl-8-trifluoromethyl-imidazo[1,2-a]pyridin-2-ylmethyl)-amide] showed an EC50 of over 50 µM.
In the case of `CN(C)CC(=O)NCc1cn2cc(-c3ccoc3)cc(C(F)(F)F)c2n1` [Compound 239, 2-Dimethylamino-N-(6-furan-3-yl-8-trifluoromethyl-imidazo[1,2-a]pyridin-2-ylmethyl)-acetamide], the EC50 is reported as over 50 µM.
Compound `O=C(c1nc2c(C(F)(F)F)cc(-c3ccoc3)cn2c1Cl)N1CCC(Nc2ncccn2)C1` (centres unmarked) [Compound 183, (3-Chloro-6-furan-3-yl-8-trifluoromethyl-imidazo [1,2-a]pyridin-2-yl)-[3-(pyrimidin-2-ylamino)-pyrrolidin-1-yl]-methanone] has an EC50 of 55 µM.
With `O=C(c1nc2c(C(F)(F)F)cc(-c3c[nH]cn3)cn2c1Cl)N1CC=C(c2ncccc2F)CC1` [Compound 122, [3-Chloro-6-(1H-imidazol-4-yl)-8-trifluoromethyl-imidazo[1,2-a]pyridin-2-yl]-(3-fluoro-3′,6′-dihydro-2′H-[2,4′]bipyridinyl-1′-yl)-methanone] the EC50 was 5.89 µM.
